# From the NIST ThermoML archive (doi:10.1016/j.jct.2005.05.003)
# Numbers after ± are expanded uncertainties.
# Experiment: mn = molality of the nth substance listed, in mol/kg
# Settings: Liquid, Vibrating tube method
smiles,measurement,setting,value
[Ca+2].[Cl-].[Cl-] [calcium chloride] + CO,mass density,"298.27 K, 184 kPa, m1 = 2.393",977.23 ± 0.59 kg/m3
same,mass density,"298.27 K, 5004 kPa, m1 = 2.393",980.74 ± 0.6 kg/m3
same,mass density,"298.27 K, 9983 kPa, m1 = 2.393",984.25 ± 0.6 kg/m3
same,mass density,"298.27 K, 14989 kPa, m1 = 2.393",987.66 ± 0.6 kg/m3
same,mass density,"298.27 K, 19998 kPa, m1 = 2.393",990.95 ± 0.6 kg/m3
same,mass density,"298.27 K, 25001 kPa, m1 = 2.393",994.14 ± 0.61 kg/m3
same,mass density,"298.27 K, 30011 kPa, m1 = 2.393",997.26 ± 0.61 kg/m3
same,mass density,"298.27 K, 34980 kPa, m1 = 2.393",1000.22 ± 0.61 kg/m3
same,mass density,"298.27 K, 39985 kPa, m1 = 2.393",1003.15 ± 0.61 kg/m3
same,mass density,"298.28 K, 175 kPa, m1 = 0.2853",814.28 ± 0.51 kg/m3
same,mass density,"298.28 K, 179 kPa, m1 = 0.6588",848.89 ± 0.53 kg/m3
same,mass density,"298.28 K, 202 kPa, m1 = 0.1082",797.82 ± 0.5 kg/m3
same,mass density,"298.28 K, 4988 kPa, m1 = 0.6588",853.15 ± 0.53 kg/m3
same,mass density,"298.28 K, 5000 kPa, m1 = 0.2853",818.77 ± 0.52 kg/m3
same,mass density,"298.28 K, 5011 kPa, m1 = 0.1082",802.48 ± 0.51 kg/m3
same,mass density,"298.28 K, 9997 kPa, m1 = 0.6588",857.39 ± 0.54 kg/m3
same,mass density,"298.28 K, 10009 kPa, m1 = 0.2853",823.22 ± 0.53 kg/m3
same,mass density,"298.28 K, 10011 kPa, m1 = 0.1082",807.08 ± 0.52 kg/m3
same,mass density,"298.28 K, 14985 kPa, m1 = 0.2853",827.41 ± 0.54 kg/m3
same,mass density,"298.28 K, 15002 kPa, m1 = 0.1082",811.44 ± 0.53 kg/m3
same,mass density,"298.28 K, 15012 kPa, m1 = 0.6588",861.47 ± 0.55 kg/m3
same,mass density,"298.28 K, 19991 kPa, m1 = 0.1082",815.57 ± 0.55 kg/m3
same,mass density,"298.28 K, 20010 kPa, m1 = 0.6588",865.31 ± 0.56 kg/m3
same,mass density,"298.28 K, 20018 kPa, m1 = 0.2853",831.46 ± 0.55 kg/m3
same,mass density,"298.28 K, 24989 kPa, m1 = 0.2853",835.29 ± 0.56 kg/m3
same,mass density,"298.28 K, 24991 kPa, m1 = 0.6588",868.99 ± 0.57 kg/m3
same,mass density,"298.28 K, 24997 kPa, m1 = 0.1082",819.63 ± 0.56 kg/m3
same,mass density,"298.28 K, 29982 kPa, m1 = 0.2853",838.98 ± 0.58 kg/m3
same,mass density,"298.28 K, 29989 kPa, m1 = 0.1082",823.45 ± 0.58 kg/m3
same,mass density,"298.28 K, 29991 kPa, m1 = 0.6588",872.56 ± 0.57 kg/m3
same,mass density,"298.28 K, 34983 kPa, m1 = 0.6588",875.99 ± 0.58 kg/m3
same,mass density,"298.28 K, 34994 kPa, m1 = 0.2853",842.53 ± 0.59 kg/m3
same,mass density,"298.28 K, 35017 kPa, m1 = 0.1082",827.11 ± 0.59 kg/m3
same,mass density,"298.28 K, 39984 kPa, m1 = 0.6588",879.31 ± 0.59 kg/m3
same,mass density,"298.28 K, 39998 kPa, m1 = 0.1082",830.67 ± 0.61 kg/m3
same,mass density,"298.28 K, 40005 kPa, m1 = 0.2853",845.94 ± 0.6 kg/m3
same,mass density,"323.22 K, 232 kPa, m1 = 0.6588",824.35 ± 0.51 kg/m3
same,mass density,"323.22 K, 237 kPa, m1 = 2.393",952.79 ± 0.58 kg/m3
same,mass density,"323.22 K, 245 kPa, m1 = 0.1082",773.87 ± 0.49 kg/m3
same,mass density,"323.22 K, 4998 kPa, m1 = 0.6588",829.19 ± 0.52 kg/m3
same,mass density,"323.22 K, 5003 kPa, m1 = 2.393",956.69 ± 0.58 kg/m3
same,mass density,"323.22 K, 5013 kPa, m1 = 0.1082",779.2 ± 0.5 kg/m3
same,mass density,"323.22 K, 9984 kPa, m1 = 0.1082",784.43 ± 0.51 kg/m3
same,mass density,"323.22 K, 9988 kPa, m1 = 2.393",960.6 ± 0.59 kg/m3
same,mass density,"323.22 K, 10013 kPa, m1 = 0.6588",834.04 ± 0.53 kg/m3
